PubChem BioAssay AID330 (DTP/NCI, 2004)
Several values for one entry are separate records, joined by “and”; a condition that tells them apart may be missing. Equal entries are not always repeated. Inconclusive results and toxic doses are left out.

System: P388 leukemia ip, CD2F1 mice, survival T/C
Assay: NCI In Vivo Anticancer Drug Screen. Data for tumor model P388 Leukemia (intraperitoneal) in CD2F1 (CDF1) mice
Details: endpoint: median survival time, higher = longer survival
Outline: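 Mice carrying the transplanted tumor received test compound or vehicle. Survival was recorded in each group, and the value is the treated-group measurement divided by that of the vehicle-treated control group.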

[1] = dose: 50.0 mg/kg/injection, schedule: Q01DX009 (ip), vehicle: Klucel (hydroxypropylcellulose) (HPC)
[2] = dose: 100.0 mg/kg/injection, schedule: Q01DX009 (ip), vehicle: Klucel (hydroxypropylcellulose) (HPC)
[3] = dose: 200.0 mg/kg/injection, schedule: Q01DX009 (ip), vehicle: Klucel (hydroxypropylcellulose) (HPC)
[4] = dose: 50.0 mg/kg/injection, schedule: Q01DX009 (ip), vehicle: saline with Tween-80
[5] = dose: 100.0 mg/kg/injection, schedule: Q01DX009 (ip), vehicle: saline with Tween-80
[6] = dose: 12.5 mg/kg/injection, schedule: Q01DX005 (ip), vehicle: Klucel (hydroxypropylcellulose) (HPC)
[7] = dose: 25.0 mg/kg/injection, schedule: Q01DX005 (ip), vehicle: Klucel (hydroxypropylcellulose) (HPC)
[8] = dose: 50.0 mg/kg/injection, schedule: Q01DX005 (ip), vehicle: Klucel (hydroxypropylcellulose) (HPC)
[9] = dose: 100.0 mg/kg/injection, schedule: Q01DX005 (ip), vehicle: Klucel (hydroxypropylcellulose) (HPC)
[10] = dose: 200.0 mg/kg/injection, schedule: Q01DX005 (ip), vehicle: Klucel (hydroxypropylcellulose) (HPC)
[11] = dose: 60.0 mg/kg/injection, schedule: Q01DX005 (ip), vehicle: saline with Tween-80
[12] = dose: 120.0 mg/kg/injection, schedule: Q01DX005 (ip), vehicle: saline with Tween-80
[13] = dose: 50.0 mg/kg/injection, schedule: Q01DX005 (ip), vehicle: saline with Tween-80
[14] = dose: 100.0 mg/kg/injection, schedule: Q01DX005 (ip), vehicle: saline with Tween-80
[15] = dose: 200.0 mg/kg/injection, schedule: Q01DX005 (ip), vehicle: saline with Tween-80
[16] = dose: 240.0 mg/kg/injection, schedule: Q01DX005 (ip), vehicle: saline with Tween-80
[17] = dose: 200.0 mg/kg/injection, schedule: Q01DX009 (ip), vehicle: saline with Tween-80
[18] = dose: 6.25 mg/kg/injection, schedule: Q01DX009 (ip), vehicle: saline with Tween-80
[19] = dose: 12.5 mg/kg/injection, schedule: Q01DX009 (ip), vehicle: saline with Tween-80
[20] = dose: 25.0 mg/kg/injection, schedule: Q01DX009 (ip), vehicle: saline with Tween-80
[21] = dose: 400.0 mg/kg/injection, schedule: Q01DX009 (ip), vehicle: saline with Tween-80

C=CCCCCC1CC2CCCCN2O1 (configuration not stated)
T/C [1]: 94 % of control
T/C [2]: 103 % of control
T/C [3]: 113 % of control

CN(C)CCC1(C)OCCC2=C1Cc1ccccc12 (configuration not stated)
T/C [4]: 91 % of control
T/C [5]: 99 % of control

CC(=O)OC(C)C(C)[N+](C)(C)C (configuration not stated)
T/C (dose: 100.0 mg/kg/injection, schedule: Q04DX002 (ip), vehicle: saline): 94 % of control

Nc1ncc(NCCCNc2ccc(C(=O)NC(CCC(=O)O)C(=O)O)cc2)c(=O)[nH]1 (configuration not stated)
T/C (dose: 6.25 mg/kg/injection, schedule: Q01DX005 (ip), vehicle: Klucel (hydroxypropylcellulose) (HPC)): 100 % of control and 102 % of control
T/C [6]: 100 % of control and 102 % of control
T/C [7]: 99 % of control and 104 % of control
T/C [8]: 102 % of control and 98 % of control
T/C [9]: 99 % of control and 103 % of control
T/C [10]: 100 % of control and 102 % of control

CCOP1(=O)OC(c2ccccc2)C(C)N1C (configuration not stated)
T/C [8]: 100 % of control
T/C [9]: 104 % of control
T/C [10]: 107 % of control

O=C(O)/C(Cl)=C(\Cl)C(=O)Nc1c(Cl)cccc1Cl
T/C [11]: 101 % of control
T/C [12]: 100 % of control

COC(=O)Nc1nc2ccc(C(C)(O)c3cccs3)cc2[nH]1 (configuration not stated)
T/C (dose: 25.0 mg/kg/injection, schedule: Q01DX005 (ip), vehicle: saline with Tween-80): 100 % of control
T/C [13]: 103 % of control
T/C [14]: 103 % of control
T/C [15]: 100 % of control

Cc1c(C)c2c(c3c1OC(C)(C)CC3)CCC(C)(C)O2
T/C (dose: 50.0 mg/kg/injection, schedule: Q01DX009 (ip), vehicle: suspension in saline): 88 % of control
T/C (dose: 100.0 mg/kg/injection, schedule: Q01DX009 (ip), vehicle: suspension in saline): 101 % of control
T/C (dose: 200.0 mg/kg/injection, schedule: Q01DX009 (ip), vehicle: suspension in saline): 100 % of control

CC(Br)CN(CC(C)Br)c1ccc(-c2ccccc2)cc1 (configuration not stated)
T/C (dose: 12.5 mg/kg/injection, schedule: Q01DX009 (ip), vehicle: Klucel (hydroxypropylcellulose) (HPC)): 154 % of control
T/C (dose: 25.0 mg/kg/injection, schedule: Q01DX009 (ip), vehicle: Klucel (hydroxypropylcellulose) (HPC)): 164 % of control
T/C [1]: 176 % of control and 181 % of control
T/C [2]: 184 % of control

Cc1cc(O)c2c(c1O)C(=O)c1cc(O)cc(O)c1C2=O
T/C (dose: 6.25 mg/kg/injection, schedule: Q01DX005 (ip), vehicle: saline + alcohol): 104 % of control
T/C (dose: 12.5 mg/kg/injection, schedule: Q01DX005 (ip), vehicle: saline + alcohol): 101 % of control
T/C (dose: 25.0 mg/kg/injection, schedule: Q01DX005 (ip), vehicle: saline + alcohol): 99 % of control

COn1nnc2cc(Cl)ccc21
T/C (dose: 100.0 mg/kg/injection, schedule: Q04DX002 (ip), vehicle: saline with Tween-80): 107 % of control
T/C (dose: 200.0 mg/kg/injection, schedule: Q04DX002 (ip), vehicle: saline with Tween-80): 98 % of control
T/C (dose: 400.0 mg/kg/injection, schedule: Q04DX002 (ip), vehicle: saline with Tween-80): 98 % of control

O=C(O)c1cccc2c1-c1ccccc1C2=O
T/C [6]: 94 % of control
T/C [7]: 99 % of control
T/C [8]: 97 % of control
T/C [9]: 100 % of control
T/C [10]: 103 % of control

c1ccc(-c2cc(Nc3ccc4c(c3)OCO4)c3cc(C4CCCCC4)ccc3n2)cc1
T/C [11]: 103 % of control
T/C [12]: 93 % of control
T/C [16]: 89 % of control

CC1CCC(C(C)C)C(OC(=O)c2cccc[n+]2C)C1 (configuration not stated)
T/C (dose: 3.75 mg/kg/injection, schedule: Q01DX005 (ip), vehicle: saline): 107 % of control
T/C (dose: 7.5 mg/kg/injection, schedule: Q01DX005 (ip), vehicle: saline): 103 % of control
T/C (dose: 15.0 mg/kg/injection, schedule: Q01DX005 (ip), vehicle: saline): 110 % of control
T/C (dose: 30.0 mg/kg/injection, schedule: Q01DX005 (ip), vehicle: saline): 104 % of control and 119 % of control

COCCOC(=O)c1c(Cl)c(Cl)c(Cl)c(Cl)c1C(=O)O
T/C [4]: 96 % of control
T/C [5]: 96 % of control
T/C [17]: 101 % of control

CC1SC2(C(=O)N(CN3CCCCC3)c3ccccc32)N(c2ccccc2)C1=O (configuration not stated)
T/C [8]: 90 % of control
T/C [9]: 100 % of control
T/C [10]: 94 % of control

CC1OC(CC(=O)O)Cc2c1c(O)c1c(O)cc(-c3cc(=O)c4c(=O)c5c(c(=O)c=4c3=O)CC(CC(=O)O)OC5C)c(O)c1c2O (configuration not stated)
T/C [18]: 100 % of control
T/C [19]: 102 % of control
T/C [20]: 103 % of control

Cc1nn(-c2ccccc2)nc1C(=O)Nc1ccccc1C(=O)NCC1CC1
T/C [11]: 91 % of control
T/C [12]: 90 % of control and 94 % of control and 96 % of control
T/C [16]: 103 % of control and 95 % of control and 96 % of control

CC1N(N2C(=O)CS(=O)(=O)C2C)C(=O)CS1(=O)=O (configuration not stated)
T/C [13]: 90 % of control
T/C [14]: 95 % of control
T/C [15]: 89 % of control

CN(C)CCCN1CCC2(CCSCC2)C1
T/C (dose: 50.0 mg/kg/injection, schedule: Q01DX005 (ip), vehicle: saline): 102 % of control
T/C (dose: 100.0 mg/kg/injection, schedule: Q01DX005 (ip), vehicle: saline): 99 % of control
T/C (dose: 200.0 mg/kg/injection, schedule: Q01DX005 (ip), vehicle: saline): 91 % of control

Cc1c2oc3c(C)ccc(C(=O)OCCN4CCCCC4)c3nc-2c(C(=O)OCCN2CCCCC2)c(N)c1=O
T/C [18]: 100 % of control
T/C [19]: 99 % of control
T/C [20]: 107 % of control
T/C [4]: 113 % of control

COC(=O)c1cc(Cl)ccc1OS(N)(=O)=O
T/C (dose: 60.0 mg/kg/injection, schedule: Q01DX005 (ip), vehicle: Klucel (hydroxypropylcellulose) (HPC)): 103 % of control
T/C (dose: 120.0 mg/kg/injection, schedule: Q01DX005 (ip), vehicle: Klucel (hydroxypropylcellulose) (HPC)): 102 % of control
T/C (dose: 240.0 mg/kg/injection, schedule: Q01DX005 (ip), vehicle: Klucel (hydroxypropylcellulose) (HPC)): 97 % of control

O=c1[nH]cnc2cccc(Cl)c12
T/C [11]: 90 % of control
T/C [12]: 90 % of control
T/C [16]: 100 % of control

CCn1c2ccccc2c2c3ncc4cccn4c3ccc21
T/C [11]: 94 % of control
T/C [12]: 98 % of control
T/C [16]: 106 % of control

CCCOSSOCCC
T/C [20]: 103 % of control
T/C [4]: 100 % of control
T/C [5]: 99 % of control

O=C1C=C(Cl)C(=O)C(c2ccccc2)=C1Cl
T/C [6]: 96 % of control
T/C [7]: 91 % of control

CCCNC(=S)N/N=C(/C)c1nccc2ccccc12
T/C (dose: 100.0 mg/kg/injection, schedule: Q04DX003 (ip), vehicle: Klucel (hydroxypropylcellulose) (HPC)): 108 % of control
T/C (dose: 200.0 mg/kg/injection, schedule: Q04DX003 (ip), vehicle: Klucel (hydroxypropylcellulose) (HPC)): 101 % of control
T/C (dose: 400.0 mg/kg/injection, schedule: Q04DX003 (ip), vehicle: Klucel (hydroxypropylcellulose) (HPC)): 99 % of control

O=C1Nc2ccccc2/C1=N/N(c1ccccc1)c1ccccc1
T/C [13]: 95 % of control
T/C [14]: 101 % of control
T/C [15]: 99 % of control

CCCCN(CCCC)CC(O)c1c2cccc(Cl)c2cc2c(Cl)cccc12 (configuration not stated)
T/C [4]: 98 % of control and 99 % of control
T/C [5]: 99 % of control and 92 % of control
T/C [17]: 90 % of control
T/C [21]: 90 % of control

CC1=C(C)C[C@](C)(S(=O)(=O)N2CCOCC2)S(=O)C1 (some centres not stated)
T/C (dose: 60.0 mg/kg/injection, schedule: Q01DX005 (ip), vehicle: saline): 105 % of control
T/C (dose: 120.0 mg/kg/injection, schedule: Q01DX005 (ip), vehicle: saline): 98 % of control
T/C (dose: 240.0 mg/kg/injection, schedule: Q01DX005 (ip), vehicle: saline): 111 % of control

CCCCCCCCCCCCOC(=O)C(N)Cc1ccc(O)cc1 (configuration not stated)
T/C [1]: 98 % of control
T/C [2]: 102 % of control
T/C [3]: 97 % of control

COc1ccc(NC(=O)c2cc3ccc4c5ccccc5[nH]c4c3cc2O)cc1
T/C [13]: 90 % of control
T/C [14]: 88 % of control

Cc1cc(C)c2nccc(/C=C/c3ccc(N(C)C)cc3)c2c1
T/C [4]: 110 % of control
T/C [5]: 108 % of control
T/C [17]: 116 % of control
T/C [21]: 91 % of control

O=c1[nH]ccn1-c1ccccc1
T/C [11]: 102 % of control
T/C [12]: 100 % of control
T/C [16]: 97 % of control

COc1ccc(CCN)cc1OC
T/C [4]: 100 % of control
T/C [5]: 100 % of control
T/C (dose: 100.0 mg/kg/injection, schedule: Q01DX009 (ip), vehicle: saline): 108 % of control
T/C [17]: 100 % of control
T/C (dose: 200.0 mg/kg/injection, schedule: Q01DX009 (ip), vehicle: saline): 106 % of control
